# Experimental data taken from BigSolDB 2.1.
smiles,measurement,setting,value
ON(Cc1ccccc1)Cc1ccccc1,solubility (mole fraction),"in 1,2,4-trichlorobenzene, 293.75 K",0.00704
same,solubility (mole fraction),"in 1,2,4-trichlorobenzene, 299.15 K",0.0103
same,solubility (mole fraction),"in 1,2,4-trichlorobenzene, 303.25 K",0.0138
same,solubility (mole fraction),"in 1,2,4-trichlorobenzene, 308.45 K",0.0198
same,solubility (mole fraction),"in 1,2,4-trichlorobenzene, 313.15 K",0.0263
same,solubility (mole fraction),"in 1,2,4-trichlorobenzene, 318.15 K",0.0367
same,solubility (mole fraction),"in 1,2,4-trichlorobenzene, 323.15 K",0.0502
same,solubility (mole fraction),"in 1,2-dichlorobenzene, 273.15 K",0.00343
same,solubility (mole fraction),"in 1,2-dichlorobenzene, 279.15 K",0.00486
same,solubility (mole fraction),"in 1,2-dichlorobenzene, 283.65 K",0.00624
same,solubility (mole fraction),"in 1,2-dichlorobenzene, 289.15 K",0.0086
same,solubility (mole fraction),"in 1,2-dichlorobenzene, 293.25 K",0.0106
same,solubility (mole fraction),"in 1,2-dichlorobenzene, 298.65 K",0.0142
same,solubility (mole fraction),"in 1,2-dichlorobenzene, 303.25 K",0.0182
same,solubility (mole fraction),"in 1,2-dichlorobenzene, 309.05 K",0.024
same,solubility (mole fraction),"in 1,2-dichlorobenzene, 313.25 K",0.0302
same,solubility (mole fraction),"in 1,2-dichlorobenzene, 318.95 K",0.0395
same,solubility (mole fraction),"in 1,2-dichlorobenzene, 323.35 K",0.0475
same,solubility (mole fraction),"in THF, 273.65 K",0.051
same,solubility (mole fraction),"in THF, 279.15 K",0.0594
same,solubility (mole fraction),"in THF, 284.15 K",0.0678
same,solubility (mole fraction),"in THF, 289.15 K",0.0773
same,solubility (mole fraction),"in THF, 293.75 K",0.0865
same,solubility (mole fraction),"in THF, 299.15 K",0.0986
same,solubility (mole fraction),"in THF, 303.25 K",0.109
same,solubility (mole fraction),"in THF, 308.45 K",0.123
same,solubility (mole fraction),"in THF, 313.15 K",0.137
same,solubility (mole fraction),"in THF, 318.15 K",0.152
same,solubility (mole fraction),"in THF, 323.15 K",0.169
same,solubility (mole fraction),"in acetone, 273.15 K",0.00762
same,solubility (mole fraction),"in acetone, 279.15 K",0.0102
same,solubility (mole fraction),"in acetone, 283.45 K",0.0124
same,solubility (mole fraction),"in acetone, 289.05 K",0.0159
same,solubility (mole fraction),"in acetone, 293.05 K",0.0186
same,solubility (mole fraction),"in acetone, 297.65 K",0.0229
same,solubility (mole fraction),"in acetone, 302.85 K",0.0282
same,solubility (mole fraction),"in acetone, 308.05 K",0.035
same,solubility (mole fraction),"in acetone, 313.15 K",0.0425
same,solubility (mole fraction),"in acetone, 317.15 K",0.0489
same,solubility (mole fraction),"in acetone, 323.15 K",0.0598
same,solubility (mole fraction),"in acetonitrile, 273.15 K",0.00152
same,solubility (mole fraction),"in acetonitrile, 279.15 K",0.00222
same,solubility (mole fraction),"in acetonitrile, 283.45 K",0.00283
same,solubility (mole fraction),"in acetonitrile, 289.05 K",0.00387
same,solubility (mole fraction),"in acetonitrile, 293.05 K",0.0049
same,solubility (mole fraction),"in acetonitrile, 297.65 K",0.00624
same,solubility (mole fraction),"in acetonitrile, 302.85 K",0.00815
same,solubility (mole fraction),"in acetonitrile, 308.05 K",0.0108
same,solubility (mole fraction),"in acetonitrile, 313.15 K",0.014
same,solubility (mole fraction),"in acetonitrile, 317.15 K",0.0168
same,solubility (mole fraction),"in acetonitrile, 323.15 K",0.0217
same,solubility (mole fraction),"in cyclohexanone, 273.15 K",0.0233
same,solubility (mole fraction),"in cyclohexanone, 279.15 K",0.0292
same,solubility (mole fraction),"in cyclohexanone, 283.65 K",0.0341
same,solubility (mole fraction),"in cyclohexanone, 289.15 K",0.041
same,solubility (mole fraction),"in cyclohexanone, 293.25 K",0.0471
same,solubility (mole fraction),"in cyclohexanone, 298.65 K",0.056
same,solubility (mole fraction),"in cyclohexanone, 303.25 K",0.0654
same,solubility (mole fraction),"in cyclohexanone, 309.05 K",0.0778
same,solubility (mole fraction),"in cyclohexanone, 313.25 K",0.09
same,solubility (mole fraction),"in cyclohexanone, 318.95 K",0.105
same,solubility (mole fraction),"in cyclohexanone, 323.35 K",0.119
same,solubility (mole fraction),"in dichloromethane, 273.15 K",0.0132
same,solubility (mole fraction),"in dichloromethane, 279.15 K",0.0179
same,solubility (mole fraction),"in dichloromethane, 283.45 K",0.0226
same,solubility (mole fraction),"in dichloromethane, 289.05 K",0.0287
same,solubility (mole fraction),"in dichloromethane, 293.05 K",0.0345
same,solubility (mole fraction),"in dichloromethane, 297.65 K",0.0425
same,solubility (mole fraction),"in dichloromethane, 302.85 K",0.0534
same,solubility (mole fraction),"in dichloromethane, 308.05 K",0.0657
same,solubility (mole fraction),"in dichloromethane, 312.15 K",0.0798
same,solubility (mole fraction),"in ethanol, 273.15 K",0.00127
same,solubility (mole fraction),"in ethanol, 279.15 K",0.00172
same,solubility (mole fraction),"in ethanol, 283.45 K",0.00215
same,solubility (mole fraction),"in ethanol, 289.05 K",0.00281
same,solubility (mole fraction),"in ethanol, 293.05 K",0.00342
same,solubility (mole fraction),"in ethanol, 297.65 K",0.00426
same,solubility (mole fraction),"in ethanol, 302.85 K",0.00543
same,solubility (mole fraction),"in ethanol, 308.05 K",0.00695
same,solubility (mole fraction),"in ethanol, 313.15 K",0.00863
same,solubility (mole fraction),"in ethanol, 317.15 K",0.0103
same,solubility (mole fraction),"in ethanol, 323.15 K",0.013
same,solubility (mole fraction),"in ethyl acetate, 273.15 K",0.00842
same,solubility (mole fraction),"in ethyl acetate, 279.15 K",0.0114
same,solubility (mole fraction),"in ethyl acetate, 283.45 K",0.0139
same,solubility (mole fraction),"in ethyl acetate, 289.05 K",0.0178
same,solubility (mole fraction),"in ethyl acetate, 293.05 K",0.0209
same,solubility (mole fraction),"in ethyl acetate, 297.65 K",0.0256
same,solubility (mole fraction),"in ethyl acetate, 302.85 K",0.0317
same,solubility (mole fraction),"in ethyl acetate, 308.05 K",0.0395
same,solubility (mole fraction),"in ethyl acetate, 313.15 K",0.0483
same,solubility (mole fraction),"in ethyl acetate, 317.15 K",0.0551
same,solubility (mole fraction),"in ethyl acetate, 323.15 K",0.0679
same,solubility (mole fraction),"in isobutanol, 273.15 K",0.000771
same,solubility (mole fraction),"in isobutanol, 279.15 K",0.00114
same,solubility (mole fraction),"in isobutanol, 283.65 K",0.00149
same,solubility (mole fraction),"in isobutanol, 289.15 K",0.00208
same,solubility (mole fraction),"in isobutanol, 293.25 K",0.00258
same,solubility (mole fraction),"in isobutanol, 298.65 K",0.00355
same,solubility (mole fraction),"in isobutanol, 303.25 K",0.00446
same,solubility (mole fraction),"in isobutanol, 309.05 K",0.00613
same,solubility (mole fraction),"in isobutanol, 313.25 K",0.00753
same,solubility (mole fraction),"in isobutanol, 318.95 K",0.0097
same,solubility (mole fraction),"in isobutanol, 323.35 K",0.0119
same,solubility (mole fraction),"in isopropanol, 273.15 K",0.000527
same,solubility (mole fraction),"in isopropanol, 279.15 K",0.000822
same,solubility (mole fraction),"in isopropanol, 283.65 K",0.00111
same,solubility (mole fraction),"in isopropanol, 289.15 K",0.00164
same,solubility (mole fraction),"in isopropanol, 293.25 K",0.00206
same,solubility (mole fraction),"in isopropanol, 298.65 K",0.00298
same,solubility (mole fraction),"in isopropanol, 303.25 K",0.00389
same,solubility (mole fraction),"in isopropanol, 309.05 K",0.00542
same,solubility (mole fraction),"in isopropanol, 313.25 K",0.00677
same,solubility (mole fraction),"in isopropanol, 318.95 K",0.00891
same,solubility (mole fraction),"in isopropanol, 323.35 K",0.0114
same,solubility (mole fraction),"in methanol, 273.15 K",0.00126
same,solubility (mole fraction),"in methanol, 279.15 K",0.00171
same,solubility (mole fraction),"in methanol, 283.45 K",0.00209
same,solubility (mole fraction),"in methanol, 289.05 K",0.00276
same,solubility (mole fraction),"in methanol, 293.05 K",0.00333
same,solubility (mole fraction),"in methanol, 297.65 K",0.00409
same,solubility (mole fraction),"in methanol, 302.85 K",0.00513
same,solubility (mole fraction),"in methanol, 308.05 K",0.00648
same,solubility (mole fraction),"in methanol, 313.15 K",0.00795
same,solubility (mole fraction),"in methanol, 317.15 K",0.00934
same,solubility (mole fraction),"in methanol, 323.15 K",0.0117
same,solubility (mole fraction),"in n-butanol, 273.15 K",0.00141
same,solubility (mole fraction),"in n-butanol, 279.15 K",0.00198
same,solubility (mole fraction),"in n-butanol, 283.45 K",0.00248
same,solubility (mole fraction),"in n-butanol, 289.05 K",0.00338
same,solubility (mole fraction),"in n-butanol, 293.05 K",0.00411
same,solubility (mole fraction),"in n-butanol, 297.65 K",0.00509
same,solubility (mole fraction),"in n-butanol, 302.85 K",0.00663
same,solubility (mole fraction),"in n-butanol, 308.05 K",0.00843
same,solubility (mole fraction),"in n-butanol, 313.15 K",0.0108
same,solubility (mole fraction),"in n-butanol, 317.15 K",0.0127
same,solubility (mole fraction),"in n-butanol, 323.15 K",0.0159
same,solubility (mole fraction),"in n-octanol, 273.15 K",0.00126
same,solubility (mole fraction),"in n-octanol, 279.15 K",0.00187
same,solubility (mole fraction),"in n-octanol, 283.65 K",0.00248
same,solubility (mole fraction),"in n-octanol, 289.15 K",0.00352
same,solubility (mole fraction),"in n-octanol, 293.25 K",0.00449
same,solubility (mole fraction),"in n-octanol, 298.65 K",0.00627
same,solubility (mole fraction),"in n-octanol, 303.25 K",0.00789
same,solubility (mole fraction),"in n-octanol, 309.05 K",0.011
same,solubility (mole fraction),"in n-octanol, 313.25 K",0.0136
same,solubility (mole fraction),"in n-octanol, 318.95 K",0.0178
same,solubility (mole fraction),"in n-octanol, 323.35 K",0.022
same,solubility (mole fraction),"in n-pentanol, 273.65 K",0.00163
same,solubility (mole fraction),"in n-pentanol, 279.15 K",0.00226
same,solubility (mole fraction),"in n-pentanol, 284.15 K",0.00291
same,solubility (mole fraction),"in n-pentanol, 289.15 K",0.00386
same,solubility (mole fraction),"in n-pentanol, 293.75 K",0.00479
same,solubility (mole fraction),"in n-pentanol, 299.15 K",0.00631
same,solubility (mole fraction),"in n-pentanol, 303.25 K",0.00766
same,solubility (mole fraction),"in n-pentanol, 308.45 K",0.00965
same,solubility (mole fraction),"in n-pentanol, 313.15 K",0.0121
same,solubility (mole fraction),"in n-pentanol, 318.15 K",0.0151
same,solubility (mole fraction),"in n-pentanol, 323.15 K",0.0185
same,solubility (mole fraction),"in n-propanol, 273.15 K",0.00136
same,solubility (mole fraction),"in n-propanol, 279.15 K",0.00187
same,solubility (mole fraction),"in n-propanol, 283.45 K",0.00232
same,solubility (mole fraction),"in n-propanol, 289.05 K",0.00313
same,solubility (mole fraction),"in n-propanol, 293.05 K",0.00383
same,solubility (mole fraction),"in n-propanol, 297.65 K",0.00476
same,solubility (mole fraction),"in n-propanol, 302.85 K",0.00606
same,solubility (mole fraction),"in n-propanol, 308.05 K",0.00781
same,solubility (mole fraction),"in n-propanol, 313.15 K",0.00991
same,solubility (mole fraction),"in n-propanol, 317.15 K",0.012
same,solubility (mole fraction),"in n-propanol, 323.15 K",0.015
same,solubility (mole fraction),"in toluene, 273.15 K",0.0043
same,solubility (mole fraction),"in toluene, 279.15 K",0.00586
same,solubility (mole fraction),"in toluene, 283.65 K",0.00732
same,solubility (mole fraction),"in toluene, 289.15 K",0.00959
same,solubility (mole fraction),"in toluene, 293.25 K",0.0114
same,solubility (mole fraction),"in toluene, 298.65 K",0.0149
same,solubility (mole fraction),"in toluene, 303.25 K",0.0182
same,solubility (mole fraction),"in toluene, 309.05 K",0.0231
same,solubility (mole fraction),"in toluene, 313.25 K",0.0273
same,solubility (mole fraction),"in toluene, 318.95 K",0.0337
same,solubility (mole fraction),"in toluene, 323.35 K",0.0398
